Source: patent publication US12558342B2, “2-[2-({12,12-dimethyl-4-oxo-6-phenyl-3,11-dioxatricyclo[8.4.0.0,2,7]tetradeca-1,5,7,9-tetraen-8-yl}oxy)acetamido]benzamide and derivatives as inhibitor of clock:bmal1 interaction for the treatment of circadian rhythm diseases and disorders” (KOC UNIVERSITESI, priority 2019, dated 2026)

Legend:
U2OS cells = assay: MTT-based cell cytotoxicity test; design: species or system human
Experimental: The toxicity of the compounds was assessed by MTT-based assay using immortalized human osteosarcoma (U2OS) cells treated with different compounds at different concentrations. Cell viability was measured with MTT-based cell cytotoxicity test. U2OS cells were seeded on 96-well plate with 4×10^3 cell/well density. Two days later, the cells were treated with an appropriate amount of different small molecules. Control cells were treated with 0.5% vehicle (DMSO). After 48 hours, the media was replaced with a 20% solution of 5 mg/ml MTT in DMEM. After 4 hours of incubation, the media was discarded and a 1:1 solution of ethanol and DMSO was used to dissolve the formazan crystals. Cell viability was measured as stated in Sigma-Aldrich product information.
Compounds with a relative cell viability of less than 80% at 1.25 μM were eliminated. The final concentration of a non-toxic compounds for in vitro experiments was set to the maximum concentration at which it had at least 80% relative cell viability. Ultimately, 72 compounds were statistically identified as non-toxic and used for the next characterization step.

CLOCK-F80A-K220A = biological target: T1, CLOCK-F80A-K220A (Homo sapiens, UniProt O15516, F80A/K220A); assay: Pull-down assay with biotinylated CLK8, HEK 293T cells overexpressing CLOCK-F80A-K220A and BMAL1; format: binding
T1 construct: expressed in transfected cells; host or cells: HEK 293T
T1 sequence (O15516 1-846 F80A/K220A): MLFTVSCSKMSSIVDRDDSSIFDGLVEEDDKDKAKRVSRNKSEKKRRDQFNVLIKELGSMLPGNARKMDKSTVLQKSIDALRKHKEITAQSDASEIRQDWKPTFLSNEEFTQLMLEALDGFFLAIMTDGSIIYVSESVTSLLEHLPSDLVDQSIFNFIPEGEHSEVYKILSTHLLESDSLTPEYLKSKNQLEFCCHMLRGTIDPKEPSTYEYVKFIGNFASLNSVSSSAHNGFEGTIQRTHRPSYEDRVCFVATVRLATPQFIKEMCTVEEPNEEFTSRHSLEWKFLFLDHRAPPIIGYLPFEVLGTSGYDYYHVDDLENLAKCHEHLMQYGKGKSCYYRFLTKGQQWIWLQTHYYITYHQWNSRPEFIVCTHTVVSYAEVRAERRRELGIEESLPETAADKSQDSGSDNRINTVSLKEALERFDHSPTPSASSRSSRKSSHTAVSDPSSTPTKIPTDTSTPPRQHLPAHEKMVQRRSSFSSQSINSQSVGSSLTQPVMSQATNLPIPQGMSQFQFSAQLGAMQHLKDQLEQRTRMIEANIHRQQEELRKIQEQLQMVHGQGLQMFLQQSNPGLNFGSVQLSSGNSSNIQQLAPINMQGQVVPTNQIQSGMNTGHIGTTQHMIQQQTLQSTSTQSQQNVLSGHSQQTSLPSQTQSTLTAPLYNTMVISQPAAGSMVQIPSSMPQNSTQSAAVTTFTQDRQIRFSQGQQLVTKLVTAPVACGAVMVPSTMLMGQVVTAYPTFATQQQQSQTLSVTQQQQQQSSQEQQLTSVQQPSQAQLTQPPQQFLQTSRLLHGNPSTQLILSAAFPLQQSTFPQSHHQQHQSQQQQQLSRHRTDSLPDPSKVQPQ
Experimental: HEK293T cells were transiently transfected with tag-free hsClock and mBmal1. After 48 hours of transfection, cells were harvested and whole cell lysate was prepared with ice-cold lysis buffer (50 mM Tris-HCl pH 7.4, 2 mM EDTA, 1 mM MgCl2, 0.2% NP-40, 1 mM sodium orthovanadate, 1 mM sodium fluoride and protease inhibitor cocktail) followed by centrifugation at 7000×g at 4° C. for 10 minutes. Lysate was diluted with ice-cold 2× binding buffer (100 mM Tris-HCl pH 7.4, 300 mM NaCl, 0.2% NP-40, 2 mM sodium orthovanadate, 2 mM sodium fluoride, and protease inhibitor cocktail) 27. The lysate was divided into three fractions to be treated with either DMSO, or 20 μM of bitoinylated-CLK8 (bait) with or without 200 μM CLK8 (competitor). The lysate-compound samples were incubated and mixed continuously at 4° C. for 1 hour. After equilibrating NeutroAvidin Agarose resin (Thermo Scientific) with lysis buffer, the lysate-compound mixture and NeutroAvidin Agarose resin were incubated and mixed continuously at 4° C. overnight. The beads were washed four times with 1× binding buffer. To elute the bound proteins Laemmli buffer was added and samples were heated at 95° C. for 7 minutes. The pull-down precipitates were subjected to SDS-PAGE and transferred to a PVDF membrane (Millipore). […]

precipitated mutant CLOCK in the presence of the competitor (CLOCK-F80A-K220A): did not disappear
SMILES: CC1(C)CCc2c(cc(OCC(=O)Nc3ccccc3C(N)=O)c3c(-c4ccccc4)cc(=O)oc23)O1 [CLK8, 2-[2-({12,12-dimethyl-4-oxo-6-phenyl-3,11-dioxatricyclo [8.4.0.0,2,7]tetradeca-1,5,7,9-tetraen-8-yl}oxy)acetamido] benzamide]
toxicity to the U2OS cell line (U2OS cells): not toxic
